Measurements published in patent US11591288B2, “Compositions and methods for treating atherosclerotic cardiovascular disease” (GAVISH-GALILEE BIO APPLICATIONS LTD., priority 2017, dated 2023).

What was measured:
PON1 = PON1 (Homo sapiens, UniProt P27169); test: PON1 binding to HDL (ratio HDL-bound PON1 vs. free PON1); details: data not shown
[1] = test system: Human umbilical vein endothelial cells (HUVECs); test: HDL-induced endothelial NO release, DAN assay; format: cell-based; details: HDL 50 μg/ml preincubated 3 h with 10, 20, 50 μg/ml; HUVECs 2 h
Procedure: HUVECs were stimulated for 2 h with HDL (50 μg/ml) preincubated with DMSO, lyso-DGTS and S1P at final concentrations of 10, 20, and 50 μg/ml for 3 h. Media were then collected and treated with nitrate reductase followed by analysis using the DAN assay. Data are expressed as NO concentration (μM) released by the cells. Each experiment was repeated separately at least three times. *p<0.05, ***p<0.0001 related to the control (HDL without lyso-DGTS or S1P). Statistics were analyzed using one-way annova Graphpad prism 5 software.
Human umbilical vein endothelial cells (HUVECs) were incubated for 2 hours with HDL preincubated with different concentration of lyso-DGTS or S1P for 3 hours, and NO production determined using 2,3-diaminonapthalene (DAN) assay.

[2] = Clinical parameters of the in-vivo experiment (HFD fed Balb/c mice); parameters: unit not given here; details: lyso-DGTS via s.c. osmotic mini-pump, 28 days; for Glucose: p < 0.05 related to vehicle group
Procedure: (§1) Eight weeks old Balb/c mice where fed with normal rodent diet (the “non” group n=11) for 12 weeks or with high-fat diet (HFD) for 8 weeks. After 8 weeks, the HFD group was divided into two groups both treated via osmotic mini-pumps implanted subcutaneously: (1) vehicle group (the pumps contained 100 μl of DDW+2% Tween 80; n=9); (2) Lyso-DGTS group (the pumps contained 100 μl lyso-DGTS 1.4 mg/ml in DDW+2% Tween 80; n=1). The mice then continued with the same diet for another 4 weeks. The pumps injected 3.5 μl solution each day for 28 days until the end of the experiment. Blood was drawn and centrifuged at 2000 rpm for five minutes, and the serum was stored at −70° C. until the analyses. Clinical parameters were measured. Serum diluted by 20 with PBS and PON1 lactonase activity was measured using dihydrocumarine assay.
The effect of lyso-DGTS on lactonase PON1 activity was examined using Balb/c mice fed with HFD. Three groups of Balb/c mice were used: 1) the “non” group […] mice which was fed with normal rodent diet for 12 weeks; 2) the “vehicle” group n=9 mice which was fed with HFD for 8 weeks and then continued with the same diet for another 4 weeks with the injection of DDW+2% Tween via osmotic mini-pumps implanted subcutaneously; and 3) the lyso-DGTS group n=1 mice which was fed similar to the vehicle group and injected with lyso-DGTS at 1.43 mg/ml in DDW+2% Tween 80 (FIG. 14). At the end of the protocol, blood was withdrawn and clinical parameters and lactonase PON1 activity were measured. […] Lactonase PON1 activity of the mice serum was measured using dehydrocumarine assay.

J774A.1 macrophages [3] = test: rePON1 influx to J774A.1 macrophages (FITC-rePON1, FACS); format: cell-based, murine; details: 16 h, 61.62 for rePON1-FITC alone
Procedure: rePON1 (2 mg/ml) was reacted with fluorescein isothiocyanate (FITC) (200 μg/ml) for 1 h at 37° C. in the dark in borate buffer (PH=8.6). Glycine 10 mM was added and the solution was dialyzed using PBS buffer to remove FITC excess. RePON1-FITC conjugate (50 μg/ml) was incubated with lyso-DGTS at different concentration (10, 20, 50 and 100 μg/ml) into RPMI for 2 h. The solution was added to J774A.1 macrophages and incubated for 16 h. Cells were washed three times with sterile PBS buffer (0.1% sodium azid, 0.2% bovine serum albumin (BSA)), harvested in PBS (buffer) and analyzed by fluorescence-activated cell sorting (FACS) (Facscalibur 4ca). Results are presented as mean fluorescence intensity (MFI).
RePON1 was labeled with FITC and incubated with lyso-DGTS at different concentrations (10, 20, 50, and 100 μg/ml) for 2 h. Each solution was added to J774A.1 macrophages and incubated at 37° C. for 16 h, and then analyzed by fluorescence-activated cell sorting (FACS). […] The MFI increased from 61.62 for rePON1-FITS alone to 131.02, 368.61, 386.46, and 517.45 for rePON1 incubated with lyso-DGTS at 10, 20, 50, and 100 μg/ml, respectively (FIG. 6B).

serum PON1 = molecular target: T1, serum PON1 (Mus musculus, UniProt P52430); test: Serum PON1 lactonase activity of Balb/c mice fed with high fat diet; format: in vivo; details: HFD mice, lyso-DGTS 1.43 mg/ml via s.c. osmotic mini-pump, 28 days; vs vehicle
T1 construct: from tissue; host or cells: serum of Balb/c mice
T1 sequence (P52430 whole entry): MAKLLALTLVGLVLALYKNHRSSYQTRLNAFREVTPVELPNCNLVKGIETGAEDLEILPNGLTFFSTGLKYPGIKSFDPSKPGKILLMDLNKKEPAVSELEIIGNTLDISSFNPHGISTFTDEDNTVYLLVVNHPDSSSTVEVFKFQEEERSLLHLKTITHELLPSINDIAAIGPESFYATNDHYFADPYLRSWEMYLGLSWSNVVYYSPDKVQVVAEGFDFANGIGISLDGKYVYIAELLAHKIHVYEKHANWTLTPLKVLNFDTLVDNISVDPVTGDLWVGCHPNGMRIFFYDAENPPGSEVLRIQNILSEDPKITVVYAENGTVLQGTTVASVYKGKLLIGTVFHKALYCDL
Procedure: as §1
The effect of lyso-DGTS on lactonase PON1 activity was examined using Balb/c mice fed with HFD. […] At the end of the protocol, blood was withdrawn and clinical parameters and lactonase PON1 activity were measured. […] Lactonase PON1 activity of the mice serum was measured using dehydrocumarine assay.

J774A.1 macrophages [4] = test: APOA1-mediated cholesterol efflux from macrophage cells; format: cell-based, murine
Procedure: J774A.1 cells were incubated for 4 h with RPMI buffer (media), APOA1 (10 μg) preincubated with DMSO or with lyso-DGTS (at final concentration of 10, 20, 50, and 100 μg/ml) for 2 h. Fluorescence was measured in media and cells at excitation/emission 482/515 nm. The cholesterol efflux was expressed as % efflux elicited by cells. Each experiment was repeated separately at least three times. *p<0.05, ***p<0.0001 relative to the control (APOA1 incubated with DMSO; n=3). Statistical analysis by one-way ANOVA and Graphpad prism 5 software.
APOA1 was incubated with lyso-DGTS at different concentrations (0, 10, 20, 50, and 100 μg/ml), and its ability to remove cholesterol from J774A.1 macrophages was measured by fluorometric assay (cell-based Cholesterol Efflux Fluorometric Assay Kit) and expressed as % of cholesterol efflux.

HDL = HDL surface polarity, Laurdan General Polarization (Gp) assay; parameters: species or system human; details: HDL 100 μg/ml, lyso-DGTS 0-100 μg/ml
Procedure: The fluorescence emission spectra of Laurdan were obtained using at excitation/emission 340/400-520 nm. The value of Gp of Laurdan was calculated using the formula: Gp=(I435−I490)/(I435+I490). Each experiment was repeated separately at least three times. *p<0.05, ***p<0.0001 related to the control (HDL without lyso-DGTS). Statistics were analyzed using T-test Graphpad prism 5 software.
HDL particles are plurimolecular, quasi-spherical or discoid, pseudomicellar complexes predominantly composed of polar lipids solubilized by apolipoproteins. In order to determine a possible interaction between lyso-DGTS and the HDL lipid core, the Laurdan General Polarization (Gp) assay was used. […] This interaction may cause a change in its physical state and lipid core polarity and thus affect its functionality.

Sequence of PON1 (P27169 whole entry, species assumed): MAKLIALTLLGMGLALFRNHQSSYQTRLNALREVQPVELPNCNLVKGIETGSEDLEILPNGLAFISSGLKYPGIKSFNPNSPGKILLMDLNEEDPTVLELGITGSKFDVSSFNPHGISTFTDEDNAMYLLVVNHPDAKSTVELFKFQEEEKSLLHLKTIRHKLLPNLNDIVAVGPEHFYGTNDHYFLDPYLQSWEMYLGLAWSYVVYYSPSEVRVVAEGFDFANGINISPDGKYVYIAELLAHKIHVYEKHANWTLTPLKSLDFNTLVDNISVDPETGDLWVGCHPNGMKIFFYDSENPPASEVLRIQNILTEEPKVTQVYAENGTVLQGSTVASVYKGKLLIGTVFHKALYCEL

CC/C=C\C/C=C\C/C=C\C/C=C\C/C=C\CCCC(=O)OCC(O)COCCC(C(=O)[O-])[N+](C)(C)C (stereo not drawn) [lyso-DGTS, lyso-diacylglyceryltrimethylhornmoserine]
ratio between HDLbound-PON1 vs. free-PON1 (PON1): did not change
effect on HDL ability to induce endothelial NO release [1]: significantly increased the HDL ability to induce endothelial NO release at a dose dependent manner
Cholesterol [2]: 4.03 ± 0.40
HDL [2]: 4.37 ± 0.42
Triglycerides [2]: 0.84 ± 0.26
Glucose [2]: 5.99±1.4
Glucose ([2]; listed as Lyso-DGTS): 5.99 ± 1.4
mean fluorescence intensity (MFI) of FITC-rePON1 in cells (J774A.1 macrophages [3]; 10 μg/ml lyso-DGTS): 131.02
mean fluorescence intensity (MFI) of FITC-rePON1 in cells (J774A.1 macrophages [3]; 20 μg/ml lyso-DGTS): 368.61
mean fluorescence intensity (MFI) of FITC-rePON1 in cells (J774A.1 macrophages [3]; 50 μg/ml lyso-DGTS): 386.46
mean fluorescence intensity (MFI) of FITC-rePON1 in cells (J774A.1 macrophages [3]; 100 μg/ml lyso-DGTS): 517.45
increase of serum lactonase PON1 activity (serum PON1): ~2.3 units
APOA1-mediated cholesterol efflux (J774A.1 macrophages [4]; APOA1+50 μg/ml lyso-DGTS, p<0.05): ~25%
APOA1-mediated cholesterol efflux (J774A.1 macrophages [4]; APOA1+100 μg/ml lyso-DGTS, p<0.0001): ~35%
effect on HDL Gp values (Laurdan) (HDL): significantly decreased the HDL Gp values at a dose dependent manner at 20, 50, and 100 μg/ml
